Data on 15 compounds can be found in article PMC3113660 (Journal of medicinal chemistry, 2010).

The test system of data set [1] is Plasmodium falciparum (K1, resistant to chloroquine). Description: In vitro growth inhibition assay of P. falciparum. Format: cell-based. The following applies: for IC50: Plasmodium falciparum.
The subject of data set [2] is Leishmania donovani (MHOM/SD/62/1S-CL2D) axenic amastigotes. In words: Antileishmanial assay. Format: cell-based. The following applies: in vitro, axenic amastigotes.
Data set [3] relates to T. brucei rhodesiense STIB900. Format: in vivo, mice. The following applies: number of mice that survive and are parasite free for 60 days.
Data set [4] has as its system Trypanosoma brucei rhodesiense (STIB900). Description: In vitro growth inhibition assay of T. brucei rhodesiense. Format: cell-based. The following applies: for SIT, selectivity index for T. brucei rhodesiense: ratio IC50 (L6)/IC50 (T. brucei rhodesiense).
The subject of a further data set is L6 rat myoblast cells. In words: In vitro cytotoxicity assay. The following applies: L6 cells; relative to 5,5′-disubstituted analogue 1. The data set is classed as cell-based.
For data set [5], the system named is P. berghei. Description: P. berghei mouse model. The data set is classed as in vivo. The following applies: subcutaneously at 30 mg/kg daily for four days; data not shown.
Data set [6] can be described thus: In vitro cytotoxicity assay. Format: cell-based, rat. The following applies: rat.
Data set [7] relates to P. berghei. The following applies: mice; cited from earlier work.
The mark [8] stands for this setting: K1, read-out: antiplasmodial IC50, P. falciparum, in vitro.

Read-outs that look alike come from different tables or passages of the source. A value given as a limit tells only on which side of the number the result lay.

In general, IC50 refers to the concentration that gives 50% inhibition. Regarding `Cl.Cl.N=C(N)c1cccc(-c2cn(-c3cccc(C(=N)N)c3)nn2)c1` [Compound 1, 1,4-Bis(3-amidinophenyl)-1H-1,2,3-triazole Dihydrochloride], the IC50 in data set [1] (setting [8]) was less than 58 nM. Moreover, the “activity against L. donovani (in words)” value in data set [2] is reported as “active”. In addition, the cures entry in data set [3] (4 × 5 mg/kg ip) is given as “no activity”.
Consider `COc1ccc(C2=NCCN2)cc1-c1cn(-c2cccc(C3=NCCN3)c2)nn1.Cl.Cl` [Compound 9, 4-[5-(4,5-Dihydro-1H-imidazol-2-yl)-2-methoxyphenyl]-1-[3-(4,5-dihydro-1H-imidazol-2-yl)phenyl]-1H-1,2,3-triazole Dihydrochloride], for which the IC50 in data set [1] (setting [8]) is less than 58 nM. Besides, the “fold more active against P. falciparum” value in data set [1] (relative to diimidazoline 3) is 26 fold. Moreover, in data set [2], the “activity against L. donovani (in words)” value is “active”. Moreover, the cures entry in data set [3] (4 × 1 mg/kg ip) is reported as “no cures”. In data set [4], the “SIT, selectivity index for T. brucei rhodesiense” value (“SIT, selectivity index” for short) was more than 29333. In addition, the “times as active against T. brucei rhodesiense” value in data set [4] (relative to unsubstituted analogue 3) is on record as approximately 2350 times.
For the compound `Cl.Cl.N=C(N)c1cccc(-n2cc(-c3cc(C(=N)N)ccc3O)nn2)c1` [Compound 13, 4-(5-Amidino-2-hydroxyphenyl)-1-(3-amidinophenyl)-1H-1,2,3-triazole Dihydrochloride], in data set [1] (setting [8]), the IC50 was less than 58 nM. Besides, the “activity against L. donovani (in words)” value in data set [2] was “active”. Moreover, the “fold less active against T. brucei rhodesiense” value in data set [4] (relative to diamidine 1) stood at 2 fold.
As to `Cl.Cl.N=C(N)c1ccc(-n2cc(-c3cccc(C(=N)N)c3)nn2)cc1` [Compound 16, 1-(4-Amidinophenyl)-4-(3-amidinophenyl)-1H-1,2,3-triazole Dihydrochloride], the “activity against L. donovani (in words)” value in data set [2] is reported as “active”. Moreover, the cures entry in data set [3] (4 × 5 mg/kg ip) is “curing one out of four mice”. The fold increased cytotoxicity in the data set on L6 rat myoblast cells is given as approximately 25 fold.
In the case of `COc1cc(C(=N)N)ccc1-n1cc(-c2cccc(C(=N)N)c2)nn1.Cl.Cl` [Compound 19, 1-(4-Amidino-2-methoxyphenyl)-4-(3-amidinophenyl)-1H-1,2,3-triazole Dihydrochloride], in data set [1] (setting [8]), the IC50 was less than 58 nM. The “activity against L. donovani (in words)” value in data set [2] is “active”. Also, the “SIT, selectivity index” value in data set [4] is on record as more than 17455.
As to `COc1ccc(C(=N)N)cc1-c1cn(-c2ccc(C(=N)N)cc2)nn1.Cl.Cl` [Compound 22, 4-(5-Amidino-2-methoxyphenyl)-1-(4-amidinophenyl)-1H-1,2,3-triazole Dihydrochloride], the IC50 in data set [1] (setting [8]) is less than 58 nM. Further, the “activity against L. donovani (in words)” value in data set [2] is listed as “active”. For the same compound, the cures result in data set [3] (4 × 5 mg/kg ip) was “curing at least two out of four animals”. The “SIT, selectivity index” value in data set [4] is more than 24750.
Turning to `Cl.Cl.N=C(N)c1ccc(-n2cc(-c3cc(C(=N)N)ccc3O)nn2)cc1` [Compound 28, 4-(5-Amidino-2-hydroxyphenyl)-1-(4-amidinophenyl)-1H-1,2,3-triazole Dihydrochloride], the IC50 in data set [1] (setting [8]) is less than 58 nM. Also, the “activity against L. donovani (in words)” value in data set [2] is on record as “active”.
On the same counts, the results for `Cl.Cl.Oc1ccc(C2=NCCN2)cc1-c1cn(-c2ccc(C3=NCCN3)cc2)nn1` [Compound 30, 4-[5-(4,5-Dihydro-1H-imidazol-2-yl)-2-hydroxyphenyl]-1-[4-(4,5-dihydro-1H-imidazol-2-yl)phenyl]-1H-1,2,3-triazole Dihydrochloride] are less than 58 nM and “active”.
On to `Cl.Cl.N=C(N)c1ccc(-c2cn(-c3ccc(C(=N)N)cc3)nn2)cc1` [Compound 46, 1,4-Bis(4-amidinophenyl)-1H-1,2,3-triazole Dihydrochloride], for which the IC50 in data set [1] (setting [8]) was less than 58 nM. Moreover, in data set [3] (4 × 0.5 mg/kg ip), the cures entry is “no cures”. In the data set on L6 rat myoblast cells, this compound displayed a fold increased cytotoxicity of approximately 25 fold.
Consider `Cl.Cl.Oc1cc(C2=NCCN2)ccc1-c1cn(-c2ccc(C3=NCCN3)cc2)nn1` [Compound 60, 4-[4-(4,5-Dihydro-1H-imidazol-2-yl)-2-hydroxyphenyl]-1-[4-(4,5-dihydro-1H-imidazol-2-yl)phenyl]-1H-1,2,3-triazole Dihydrochloride], for which, in data set [1] (relative to diimidazoline 48), the “times as active against P. falciparum” value was found to be 3 times. The “times greater antiplasmodial selectivity index SIP” value in data set [1] (relative to pentamidine) is listed as approximately 400 times. Further, the “effect on blood parasite count” value in the data set on P. berghei [5] is recorded as “did not reduce the blood parasite count”.
Consider `C[C@@H]1CC[C@H]2[C@@H](C)C(=O)O[C@@H]3O[C@@]4(C)CC[C@@H]1[C@]32OO4` [artemisinin, reference compound], for which, in data set [1] (ratio IC50 (L6)/IC50 (P. falciparum)), the “SIP, selectivity index for P. falciparum” value is recorded as 75000. In data set [6], this compound registered an IC50 at 70 h of 450000 nM.
Regarding `CCN(CC)CCCC(C)Nc1ccnc2cc(Cl)ccc12` (stereo not drawn) [chloroquine, reference compound], in data set [1] (K1, read-out: P. falciparum IC50), the IC50 amounted to 124 nM. The IC50 at 70 h in data set [6] came out at 117000 nM.
Consider `N=C(N)c1ccc(-c2ccc(-c3ccc(C(=N)N)cc3)o2)cc1` [furamidine, 2,5-bis(4-amidinophenyl)furan], for which the “activity against trophozoite-induced P. berghei infection” value with P. berghei [7] is “inactive”.
In data set [6], `Nc1nc(N)nc(Nc2ccc([As]3SCC(CO)S3)cc2)n1` (stereo not drawn) [melarsoprol] came in with an IC50 at 70 h of 7780 nM.
Still for that read-out and setting: the value for `COc1cc([C@@H]2c3cc4c(cc3[C@H](O)[C@H]3COC(=O)[C@H]23)OCO4)cc(OC)c1OC` [podophyllotoxin] was 20 nM.
